# Data reported in patent publication US6391305B1, “Conjugates useful in the treatment of prostate cancer” (priority 1999, dated 2002).
# Marks after values point to notes of the source that are not given here. Non-standard residues stand in square brackets, D forms with d. Residues, ends and D or L forms follow the SMILES beside them. *: point of attachment. Doxorubicin(3'-N) = COc1cccc2c1C(=O)c1c(O)c3c(c(O)c1C2=O)C[C@@](O)(C(=O)CO)C[C@@H]3O[C@H]1C[C@H](N*)[C@H](O)[C@H](C)O1; Glyceroyl(2S) = O=C([C@@H](O)CO)*; Glyceroyl(2R) = O=C([C@H](O)CO)*; hArg = N=C(N)NCCCC[C@H](N)C(=O)O; X1 = O=C([C@H](O)[C@@H](O)CO)*; Chg = N[C@H](C(=O)O)C1CCCCC1; hSer = N[C@@H](CCO)C(=O)O; Nle = CCCC[C@H](N)C(=O)O; Glycolyl = O=C(CO)*; X3 = O=C(C(O)CO)*
# What was measured:
# [1] = target: T1, enzymatically active free PSA (Homo sapiens, UniProt P07288); experiment: Recognition (cleavage) of oligopeptide-doxorubicin conjugates by free PSA, HPLC; type: biochemical; settings: DOX conjugate; for Time to 50% Substrate Cleavage by York PSA: PSA digestion buffer pH7.4, 140 mM NaCl, molar ratio to PSA 100 to 1
# T1 construct: required for 50% cleavage of the noted oligopeptides with enzymatically active free PSA
# Description: If no salt is indicated for the conjugate, the free conjugate was tested.
# [2] = tested on: LNCap prostate tumor cells; experiment: In vitro cytotoxicity, Alamar Blue assay, LNCaP; type: cell-based; settings: 72 HRS, read-out: LNCaP Cell Kill in 72 HRS, {48 HRS} EC 50
# Description: (§1) The cytotoxicities of the cleaveable oligopeptide-doxorubicin conjugates, prepared as described in Examples 3-6, against a line of cells which is known to be killed by unmodified doxorubicin was assessed with an Alamar Blue assay. Specifically, cell cultures of LNCap prostate tumor cells or DuPRO cells in 96 well plates was diluted with medium containing various concentrations of a given conjugate (final plate well volume of 200 μl ). The cells were incubated for 3 days at 37° C., 20 μl of Alamar Blue is added to the assay well. The cells were further incubated and the assay plates were read on a EL-310 ELISA reader at the dual wavelengths of 570 and 600 nm at 4 and 7 hours after addition of Alamar Blue. Relative percentage viability at the various concentration of conjugate tested was then calculated versus control (no conjugate) cultures. If no salt is indicated, the free conjugate was tested.
# [3] = tested on: DuPRO cells; experiment: In vitro cytotoxicity, Alamar Blue assay, DuPRO; type: cell-based; settings: value in parentheses beside the LNCaP value, read-out: DuPRO cell kill EC 50
# Description: as §1
# T1 sequence (P07288 25-261): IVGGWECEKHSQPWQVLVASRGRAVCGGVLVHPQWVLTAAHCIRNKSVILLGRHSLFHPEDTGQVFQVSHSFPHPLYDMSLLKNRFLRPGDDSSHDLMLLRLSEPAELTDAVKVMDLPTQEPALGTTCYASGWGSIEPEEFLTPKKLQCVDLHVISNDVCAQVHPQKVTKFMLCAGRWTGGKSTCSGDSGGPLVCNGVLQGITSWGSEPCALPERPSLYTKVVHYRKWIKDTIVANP
Compound,"Time to 50% Substrate Cleavage by York PSA (Min), value marked * ([1]; alternative PSA digestion buffer pH8.0, 25 mM NaCl, 0.5 mM CaCl2)",EC50 [2],EC50 [3],Time to 50% Substrate Cleavage by York PSA [1],Substrate cleavage by York PSA at 3 HOUR ([1]; 3 hours)
"CCCC[C@H](NC(=O)[C@H](CO)NC(=O)[C@H](CCC(N)=O)NC(=O)[C@H](Cc1ccc(O)cc1)NC(=O)[C@H](CO)NC(=O)[C@H](CO)NC(=O)[C@H](CCCCNC(=N)N)NC(=O)CO)C(=O)N[C@H]1C[C@H](O[C@H]2C[C@](O)(C(=O)CO)Cc3c(O)c4c(c(O)c32)C(=O)c2c(OC)cccc2C4=O)O[C@@H](C)[C@H]1O [2-hydroxyacetyl-HomoRSSYQ-SNle-DOX (3′), 2-hydroxyacetyl-hArgSerSerTyrGln-SerNle-DOX (3′)] (Glycolyl-[hArg]SSYQS[Nle]-{Doxorubicin(3'-N)})",60* Min,3.6 µM,> 100 µM,–,–
COc1cccc2c1C(=O)c1c(O)c3c(c(O)c1C2=O)C[C@@](O)(C(=O)CO)C[C@@H]3O[C@H]1C[C@H](NC(=O)[C@H](CC(C)C)NC(=O)[C@H](CO)NC(=O)[C@H](CCC(N)=O)NC(=O)[C@@H](NC(=O)[C@H](CO)NC(=O)[C@H](CO)NC(=O)CO)C2CCCCC2)[C@H](O)[C@H](C)O1 [2-hydroxyacetyl-SSChgQ-SL-DOX (3′)] (Glycolyl-SS[Chg]QSL-{Doxorubicin(3'-N)}),–,4.8 µM,> 100 µM,45 min,–
"COc1cccc2c1C(=O)c1c(O)c3c(c(O)c1C2=O)C[C@@](O)(C(=O)CO)C[C@@H]3O[C@H]1C[C@H](NC(=O)[C@H](CC(C)C)NC(=O)[C@H](CO)NC(=O)[C@H](CCC(N)=O)NC(=O)[C@@H](NC(=O)[C@H](CO)NC(=O)[C@H](CO)NC(=O)[C@H](CO)NC(=O)CO)C2CCCCC2)[C@H](O)[C@H](C)O1 [2-hydroxyacetyl-SSSChgQ-SL-DOX (3′), N-(2-Hydroxyacetyl)-Ser-Ser-Ser-Chg-Gln-Ser-Leu-Dox] (Glycolyl-SSS[Chg]QSL-{Doxorubicin(3'-N)})",–,7.2 µM,> 100 µM,25 min,–
"COc1cccc2c1C(=O)c1c(O)c3c(c(O)c1C2=O)C[C@@](O)(C(=O)CO)C[C@@H]3O[C@H]1C[C@H](NC(=O)[C@H](CC(C)C)NC(=O)[C@H](CO)NC(=O)[C@H](CCC(N)=O)NC(=O)[C@@H](NC(=O)[C@H](CO)NC(=O)[C@H](CO)NC(=O)[C@H](CCO)NC(=O)C(O)CO)C2CCCCC2)[C@H](O)[C@H](C)O1 (stereo partly drawn) [(2,3-dihydroxypropionyl)-hSerSerSerChgGln-SerLeu-DOX (3′)] (X3-[hSer]SS[Chg]QSL-{Doxorubicin(3'-N)})",–,5.1 µM,90 µM,35 min,–
"COc1cccc2c1C(=O)c1c(O)c3c(c(O)c1C2=O)C[C@@](O)(C(=O)CO)C[C@@H]3O[C@H]1C[C@H](NC(=O)[C@H](CC(C)C)NC(=O)[C@H](CO)NC(=O)[C@H](CCC(N)=O)NC(=O)[C@@H](NC(=O)[C@H](CCCCNC(=N)N)NC(=O)[C@H](CO)NC(=O)[C@H](O)[C@@H](O)CO)C2CCCCC2)[C@H](O)[C@H](C)O1 [(2R,3S) 2,3,4-trihydroxybutanoyl-SerhArgChgGln-SerLeu-DOX (3′)] (X1-S[hArg][Chg]QSL-{Doxorubicin(3'-N)})",–,14.1 µM,> 100 µM,45 min,–
"COc1cccc2c1C(=O)c1c(O)c3c(c(O)c1C2=O)C[C@@](O)(C(=O)CO)C[C@@H]3O[C@H]1C[C@H](NC(=O)[C@H](CC(C)C)NC(=O)[C@H](CO)NC(=O)[C@H](CCC(N)=O)NC(=O)[C@@H](NC(=O)[C@H](CCCCNC(=N)N)NC(=O)[C@H](CO)NC(=O)[C@H](O)CO)C2CCCCC2)[C@H](O)[C@H](C)O1 [(d) 2,3-dihydroxypropionyl-SerhArgChgGln-SerLeu-DOX (3′)] ({Glyceroyl(2R)}-S[hArg][Chg]QSL-{Doxorubicin(3'-N)})",–,5.8 µM,> 100 µM,65 min,–
"COc1cccc2c1C(=O)c1c(O)c3c(c(O)c1C2=O)C[C@@](O)(C(=O)CO)C[C@@H]3O[C@H]1C[C@H](NC(=O)[C@H](CC(C)C)NC(=O)[C@H](CO)NC(=O)[C@H](CCC(N)=O)NC(=O)[C@@H](NC(=O)[C@H](CO)NC(=O)[C@H](CO)NC(=O)[C@H](CCCCNC(=N)N)NC(=O)[C@H](O)CO)C2CCCCC2)[C@H](O)[C@H](C)O1 [(d)(2,3-dihydroxypropionyl)-hArgSerSerChgGln-SerLeu-DOX(3′)] ({Glyceroyl(2R)}-[hArg]SS[Chg]QSL-{Doxorubicin(3'-N)})",–,7.7 µM,> 100 µM,12 min,–
"COc1cccc2c1C(=O)c1c(O)c3c(c(O)c1C2=O)C[C@@](O)(C(=O)CO)C[C@@H]3O[C@H]1C[C@H](NC(=O)[C@H](CC(C)C)NC(=O)[C@H](CO)NC(=O)[C@H](CCC(N)=O)NC(=O)[C@@H](NC(=O)[C@H](CO)NC(=O)[C@H](CO)NC(=O)[C@H](O)CO)C2CCCCC2)[C@H](O)[C@H](C)O1 [(d)(2,3-dihydroxypropionyl)SerSerChgGln-SerLeu-DOX (3′)] ({Glyceroyl(2R)}-SS[Chg]QSL-{Doxorubicin(3'-N)})",–,9.1 µM,> 100 µM,120 min,–
"COc1cccc2c1C(=O)c1c(O)c3c(c(O)c1C2=O)C[C@@](O)(C(=O)CO)C[C@@H]3O[C@H]1C[C@H](NC(=O)[C@H](CC(C)C)NC(=O)[C@H](CO)NC(=O)[C@H](CCC(N)=O)NC(=O)[C@@H](NC(=O)[C@H](CCCCNC(=N)N)NC(=O)[C@H](CO)NC(=O)[C@@H](O)CO)C2CCCCC2)[C@H](O)[C@H](C)O1 [(l) 2,3-dihydroxypropionyl-SerhArgChgGln-SerLeu-DOX (3′)] ({Glyceroyl(2S)}-S[hArg][Chg]QSL-{Doxorubicin(3'-N)})",–,9.4 µM,> 100 µM,15 min,–
"COc1cccc2c1C(=O)c1c(O)c3c(c(O)c1C2=O)C[C@@](O)(C(=O)CO)C[C@@H]3O[C@H]1C[C@H](NC(=O)[C@H](CC(C)C)NC(=O)[C@H](CO)NC(=O)[C@H](CCC(N)=O)NC(=O)[C@@H](NC(=O)[C@H](CO)NC(=O)[C@H](CO)NC(=O)[C@@H](O)CO)C2CCCCC2)[C@H](O)[C@H](C)O1 [(l)(2,3-dihydroxypropionyl)-SerSerChgGln-SerLeu-DOX (3′)] ({Glyceroyl(2S)}-SS[Chg]QSL-{Doxorubicin(3'-N)})",–,13 µM,> 100 µM,25 min,–
"COc1cccc2c1C(=O)c1c(O)c3c(c(O)c1C2=O)C[C@@](O)(C(=O)CO)C[C@@H]3O[C@H]1C[C@H](NC(=O)[C@@H](CC(C)C)NC(=O)[C@H](CO)NC(=O)[C@H](CCC(N)=O)NC(=O)[C@@H](NC(=O)[C@H](CO)NC(=O)[C@H](CO)NC(=O)[C@@H](O)CO)C2CCCCC2)[C@H](O)[C@H](C)O1 [(l)(2,3-dihydroxypropionyl)SerSerChgGln-Ser(dLeu)-DOX (3′)] ({Glyceroyl(2S)}-SS[Chg]QS[dL]-{Doxorubicin(3'-N)})",–,> 100 µM,> 100 µM,–,22%
"COc1cccc2c1C(=O)c1c(O)c3c(c(O)c1C2=O)C[C@@](O)(C(=O)CO)C[C@@H]3O[C@H]1C[C@H](NC(=O)[C@@H](CC(C)C)NC(=O)[C@H](CO)NC(=O)[C@H](CCC(N)=O)NC(=O)[C@@H](NC(=O)[C@H](CO)NC(=O)[C@H](CO)NC(=O)[C@H](CO)NC(=O)[C@@H](O)CO)C2CCCCC2)[C@H](O)[C@H](C)O1 [(l)(2,3-dihydroxypropionyl)SerSerSerChgGln-Ser(dLeu)-DOX (3′)] ({Glyceroyl(2S)}-SSS[Chg]QS[dL]-{Doxorubicin(3'-N)})",–,91 µM,> 100 µM,180 min,–
"COc1cccc2c1C(=O)c1c(O)c3c(c(O)c1C2=O)C[C@@](O)(C(=O)CO)C[C@@H]3O[C@H]1C[C@H](NC(=O)[C@H](CC(C)C)NC(=O)[C@H](CO)NC(=O)[C@H](CCC(N)=O)NC(=O)[C@@H](NC(=O)[C@H](CO)NC(=O)[C@H](CO)NC(=O)[C@H](CCCCNC(=N)N)NC(=O)[C@@H](O)CO)C2CCCCC2)[C@H](O)[C@H](C)O1 [(l)(2,3-dihydroxypropionyl)hArgSerSerChgGlnSerLeu-DOX (3′)] ({Glyceroyl(2S)}-[hArg]SS[Chg]QSL-{Doxorubicin(3'-N)})",–,7.5 µM,> 100 µM,12 min,–
"COc1cccc2c1C(=O)c1c(O)c3c(c(O)c1C2=O)C[C@@](O)(C(=O)CO)C[C@@H]3O[C@H]1C[C@H](NC(=O)[C@H](CC(C)C)NC(=O)[C@H](CO)NC(=O)[C@H](CCC(N)=O)NC(=O)[C@@H](NC(=O)[C@H](CO)NC(=O)[C@H](CO)NC(=O)[C@H](CO)NC(=O)[C@H](O)CO)C2CCCCC2)[C@H](O)[C@H](C)O1 [N-2(R)-2,3-dihydroxypropionyl-Ser-Ser-Ser-Chg-Gln-Ser-Leu-Dox] ({Glyceroyl(2R)}-SSS[Chg]QSL-{Doxorubicin(3'-N)})",–,5.8 µM,> 100 µM,55 min,–
"COc1cccc2c1C(=O)c1c(O)c3c(c(O)c1C2=O)C[C@@](O)(C(=O)CO)C[C@@H]3O[C@H]1C[C@H](NC(=O)[C@H](CC(C)C)NC(=O)[C@H](CO)NC(=O)[C@H](CCC(N)=O)NC(=O)[C@@H](NC(=O)[C@H](CO)NC(=O)[C@H](CO)NC(=O)[C@H](CO)NC(=O)[C@@H](O)CO)C2CCCCC2)[C@H](O)[C@H](C)O1 [N-2(S)-2,3-dihydroxypropionyl-Ser-Ser-Ser-Chg-Gln-Ser-Leu-Dox] ({Glyceroyl(2S)}-SSS[Chg]QSL-{Doxorubicin(3'-N)})",–,5.5 µM,> 100 µM,25 min,–
